From PMC8944975, “Secretin Receptor as a Target in Gastrointestinal Cancer: Expression Analysis and Ligand Development” (Biomedicines, 2022)
Where two headings read alike, the source gives them in different places. Where no end group is shown, it is not given here. [ ]: non-standard residue; d: D form.

Key:
human SCTR [1] = target: T1, human SCTR (Homo sapiens, UniProt P47872); assay: GloSensor cAMP assay, agonist mode; type: cell-based; design: expressed in transfected cells; conditions: for Emax: read-out: cAMP Production, Intrinsic Activity
T1 sequence (P47872 23-440): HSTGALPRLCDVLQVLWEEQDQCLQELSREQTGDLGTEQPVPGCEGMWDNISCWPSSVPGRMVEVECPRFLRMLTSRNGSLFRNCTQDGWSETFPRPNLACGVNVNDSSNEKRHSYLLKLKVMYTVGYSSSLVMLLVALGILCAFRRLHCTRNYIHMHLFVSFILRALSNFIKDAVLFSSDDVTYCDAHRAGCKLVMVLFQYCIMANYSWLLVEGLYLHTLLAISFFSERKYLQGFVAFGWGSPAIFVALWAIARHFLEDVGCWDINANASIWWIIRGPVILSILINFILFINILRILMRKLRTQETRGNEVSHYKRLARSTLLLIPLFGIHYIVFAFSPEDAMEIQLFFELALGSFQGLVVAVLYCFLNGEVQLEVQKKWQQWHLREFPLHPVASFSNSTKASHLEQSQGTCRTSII
Description: Analysis of downstream signaling of activated SCTR via Gαs G-protein subunits was performed by monitoring intracellular cAMP utilizing the GloSensor system (Promega, Walldorf, Germany) in accordance with the supplier protocol. Measurements were performed using the EnVision Analyzer (PerkinElmer, Rodgau, Germany). For evaluation, concentration–response curves (signal-to-noise ratios plotted) employing the derived statistical mean and SD for estimation of the respective EC50 were calculated using Spotfire Decision Site (TIBCO, Palo Alto, CA, USA). For the analysis of antagonists, a modified protocol was used. Treatment of cells and dilution of the potential antagonist was performed as previously described. Ligand dilutions were added to cells and incubated at room temperature for 5 min. Successively, secretin was added at a final concentration of 0.5 nM for an additional 15 min at room temperature. The emitted chemiluminescence, which correlates with the cAMP concentration, was detected with suitable filters. Evaluation of data was performed as previously described with a calculation of half-maximal inhibitory concentration (IC50).

human SCTR [2] = target: T1, human SCTR; assay: agonist-induced β-arr2-GFP translocation; type: cell-based; design: expressed in transfected cells; host or cells: U2OS (human osteosarcoma), stably co-transfected with β-arrestin2-GFP; conditions: Supplementary Tables S1 and S2, decimal comma, '-' not detectable (Figure 4); for β-arrestin2-GFP agonism efficacy: % of wild-type secretin; for EC50: U2OS-SCTR/β-arr2-GFP cells, 20 min at 37 °C, mean of at least three independent experiments in duplicates, read-out: β-arrestin2-GFP agonism potency
Source text: (§1) U2OS-SCTR/β-arr2-GFP: human osteosarcoma cell line U2OS (purchased from ATCC/LGC Standards, Wesel, Germany) were stably transfected with plasmids encoding SCTR (Homo sapiens) and the fusion protein β-arrestin2-green fluorescent protein (GFP) (Rattus norvegicus-Aequorea victoria) (β-arr2-GFP).
To evaluate reactivity of human SCTR exposed to different ligand variants, intracellular translocation of a fusion protein of β-arrestin2 and green fluorescent protein was utilized. For evaluation of activation, receptor-mediated recruitment of cytoplasmic β-arr2-GFP was monitored through its translocation into condensed intracellular vesicles. The extent of translocation events was quantified by determining the increasing granularization of the intracellular fluorescence utilizing an automated high-throughput microscope in combination with computational algorithms to estimate potency (EC50) and efficacy, thus characterizing ligand-SCTR interaction. U2OS-SCTR/β-arr2-GFP cells were seeded in 96-well cell culture plates to 60–80% confluence. On the following day, preceding stimulation, cells were incubated for one hour in serum-free medium. Ligand variants were applied as serial dilutions in assay buffer C1. After preincubation, supernatant was discarded by tapping plates overhead repeatedly. For stimulation, 50 µL of ligand dilution was applied per well in duplicates and incubated for 20 min at 37 °C. Successively, cells were fixed by applying 4% buffered formaldehyde (Herbeta Arzneimittel, Berlin, Germany) for 10 min at room temperature and consecutively permeabilized for 10 min at room temperature with 0.1% TritonX-100 in PBS, containing DAPI (4′,6-Diamidin-2-phenylindol, SigmaAldrich, Deisenhofen, Germany, 1 µg/mL) to counterstain nuclei. Microscopic images were recorded by an IN Cell Analyzer 1000 (GE Healthcare, Reading, UK) with 20× magnification at 5 frames per well in a 96-well format. Image processing was performed with IN Cell Investigator software (GE Healthcare, Reading, UK), applying the provided granularity algorithm. The output of the analysis was indicated as vesicle area/cell and was utilized for calculation of concentration–response curves. Parameters derived from curve fitting included the concentration of half-maximal activity (EC50), and intrinsic activity. Intrinsic activity was normalized defining reaction to non-modified wild type secretin as the 100% curve maximum value.

human SCTR [3] = target: T1, human SCTR; assay: β-arr2-GFP translocation assay run in antagonist mode; type: cell-based; design: expressed in transfected cells; host or cells: U2OS (human osteosarcoma), stably co-transfected with β-arrestin2-GFP; as to IC50, inhibition of β-arr2-GFP translocation (Table 3): peptide 5 min at 37 °C
Source text: as §1
For analysis of antagonistic effects on SCTR, a slightly modified protocol of the β-arr2-GFP translocation was used. […] For analysis, cells were terminally fixed and permeabilized as previously described. The additional monitoring of IDCC fluorescence in the near-infrared channel (667 nm) provided another measure for receptor binding and activation.

[4] = target: human secretin receptor (SCTR) (human, UniProt P47872 23-440); assay: cell-based or functional assay
Chain of human secretin receptor (SCTR) (P47872 23-440): as above

[5] = Supplementary Table S2, GloSensor system, at least three independent experiments in duplicates, decimal comma, read-out: cAMP agonism potency
[6] = GloSensor cAMP assay, at least 3 independent experiments in duplicates
[7] = read-out: IC50, inhibition of β-arr2-GFP translocation (Table 2)

HSDGTFTSELSRLREGARLQRLLQG [Peptide 98]
EC50 (human SCTR [1]; [5]): 1.55 nM | β-arrestin2-GFP agonism efficacy (human SCTR [2]): 104,47 % Sec | EC50 (human SCTR [2]): 26.5 nM

HSDGTFTSELSRLREGARLQ [Peptide 103]
EC50 (human SCTR [1]; [5]): 875 nM

HSDGTFTSELSRLREGARLQRLLQGL [Peptide 97]
EC50 (human SCTR [1]; [5]): 0.51 nM | β-arrestin2-GFP agonism efficacy (human SCTR [2]): 109,53 % Sec | EC50 (human SCTR [2]): 8.8 nM

HSDGTFTSELSRLREGARLQRLL [Peptide 100]
EC50 (human SCTR [1]; [5]): 7.63 nM | β-arrestin2-GFP agonism efficacy (human SCTR [2]): 92,23 % Sec | EC50 (human SCTR [2]): 131 nM

HSDGTFTSELSRLREGARLQRLLQ [Peptide 99]
EC50 (human SCTR [1]; [5]): 2.09 nM | β-arrestin2-GFP agonism efficacy (human SCTR [2]): 103,60 % Sec | EC50 (human SCTR [2]): 35.9 nM

CC(C)C[C@H](NC(=O)CNC(=O)[C@H](C)NC(=O)[C@H](CC(C)C)NC(=O)[C@H](CC(C)C)NC(=O)[C@H](CCCNC(=N)N)NC(=O)[C@H](CCC(N)=O)NC(=O)[C@H](CC(C)C)NC(=O)[C@H](CCCNC(=N)N)NC(=O)[C@H](C)NC(=O)CNC(=O)[C@H](CCC(=O)O)NC(=O)[C@H](CCCNC(=N)N)NC(=O)[C@H](CC(C)C)NC(=O)[C@H](CCCNC(=N)N)NC(=O)[C@H](CO)NC(=O)[C@H](CC(C)C)NC(=O)[C@H](CCC(=O)O)NC(=O)[C@H](CO)NC(=O)[C@@H](NC(=O)[C@H](Cc1ccccc1)NC(=O)[C@H](N)CCCNC(=N)N)[C@@H](C)O)C(=O)N[C@H](C(=O)O)C(C)C [Peptide 143]
Emax (human SCTR [1]; [6]): 27.5 ± 8.8%

CC(C)C[C@H](NC(=O)CNC(=O)[C@H](CCC(N)=O)NC(=O)[C@H](CC(C)C)NC(=O)[C@H](CC(C)C)NC(=O)[C@H](CCCNC(=N)N)NC(=O)[C@H](CCC(N)=O)NC(=O)[C@H](CC(C)C)NC(=O)[C@H](CCCNC(=N)N)NC(=O)[C@H](C)NC(=O)CNC(=O)[C@H](CCC(=O)O)NC(=O)[C@H](CCCNC(=N)N)NC(=O)[C@H](CC(C)C)NC(=O)[C@H](CCCNC(=N)N)NC(=O)[C@H](CO)NC(=O)[C@H](CC(C)C)NC(=O)[C@H](CCC(=O)O)NC(=O)[C@H](CO)NC(=O)[C@@H](N)[C@@H](C)O)C(=O)N[C@H](C(N)=O)C(C)C [Peptide 120]
IC50 (human SCTR [3]; [7]): > 3000 nM | IC50 (human SCTR [3]; read-out: Inhibition of β-arr2-GFP Translocation, IC50): > 3000 nM | Emax (human SCTR [1]; [6]): 90.6 ± 11.5% | EC50 (human SCTR [1]; GloSensor cAMP assay, at least 3 independent experiments in duplicates, read-out: cAMP Production, EC50): 3370 ± 1570 nM

CC(C)C[C@H](NC(=O)CNC(=O)[C@H](CCC(N)=O)NC(=O)[C@H](CC(C)C)NC(=O)[C@H](CC(C)C)NC(=O)[C@H](CCCNC(=N)N)NC(=O)[C@H](CCC(N)=O)NC(=O)[C@H](CC(C)C)NC(=O)[C@H](CCCNC(=N)N)NC(=O)[C@H](C)NC(=O)[C@H](C)NC(=O)[C@H](CCC(=O)O)NC(=O)[C@H](CCCNC(=N)N)NC(=O)[C@H](CC(C)C)NC(=O)[C@H](CCCNC(=N)N)NC(=O)[C@H](CO)NC(=O)[C@H](CC(C)C)NC(=O)[C@H](CCC(=O)O)NC(=O)[C@H](CO)NC(=O)[C@@H](NC(=O)[C@H](Cc1ccccc1)NC(=O)[C@H](N)CCCNC(=N)N)[C@@H](C)O)C(=O)N[C@H](C(=O)O)C(C)C [Peptide 136]
Emax (human SCTR [1]; [6]): 33.6 ± 0.9%

HSDGTFTSELSRLREGARLQRL [Peptide 101]
EC50 (human SCTR [1]; [5]): 57 nM

CC(C)C[C@H](NC(=O)CNC(=O)[C@H](CCC(N)=O)NC(=O)[C@H](CC(C)C)NC(=O)[C@H](CC(C)C)NC(=O)[C@H](CCCNC(=N)N)NC(=O)[C@H](CCC(N)=O)NC(=O)[C@H](CC(C)C)NC(=O)[C@H](CCCNC(=N)N)NC(=O)[C@H](C)NC(=O)CNC(=O)[C@H](CCC(=O)O)NC(=O)[C@H](CCCNC(=N)N)NC(=O)[C@H](CC(C)C)NC(=O)[C@H](CCCNC(=N)N)NC(=O)[C@H](CO)NC(=O)[C@H](CC(C)C)NC(=O)[C@H](CCC(=O)O)NC(=O)[C@H](CO)NC(=O)[C@@H](NC(=O)[C@H](Cc1ccccc1)NC(=O)[C@@H](NC(=O)CN)[C@@H](C)O)[C@@H](C)O)C(=O)N[C@H](C(=O)O)C(C)C [Peptide 117]
IC50 (human SCTR [3]; [7]): 1920 ± 355 nM | EC50 (human SCTR [1]; [5]): 166 nM

CC(C)C[C@H](NC(=O)[C@H](C)NC(=O)[C@H](CCC(N)=O)NC(=O)[C@H](CC(C)C)NC(=O)[C@H](CC(C)C)NC(=O)[C@H](CCCNC(=N)N)NC(=O)[C@H](CCC(N)=O)NC(=O)[C@H](CC(C)C)NC(=O)[C@H](CCCNC(=N)N)NC(=O)[C@H](C)NC(=O)CNC(=O)[C@H](CCC(=O)O)NC(=O)[C@H](CCCNC(=N)N)NC(=O)[C@H](CC(C)C)NC(=O)[C@H](CCCNC(=N)N)NC(=O)[C@H](CO)NC(=O)[C@H](CC(C)C)NC(=O)[C@H](CCC(=O)O)NC(=O)[C@H](CO)NC(=O)[C@@H](NC(=O)[C@H](Cc1ccccc1)NC(=O)[C@H](N)CCCNC(=N)N)[C@@H](C)O)C(=O)N[C@H](C(=O)O)C(C)C [Peptide 144]
Emax (human SCTR [1]; [6]): 31.1 ± 2.2%

CC(C)C[C@H](NC(=O)CNC(=O)[C@H](CCC(N)=O)NC(=O)[C@H](CC(C)C)NC(=O)[C@H](CC(C)C)NC(=O)[C@H](CCCNC(=N)N)NC(=O)[C@H](CCC(N)=O)NC(=O)[C@H](CC(C)C)NC(=O)[C@H](CCCNC(=N)N)NC(=O)[C@H](C)NC(=O)CNC(=O)[C@H](CCC(=O)O)NC(=O)[C@H](CCCNC(=N)N)NC(=O)[C@H](CC(C)C)NC(=O)[C@H](CCCNC(=N)N)NC(=O)[C@H](CO)NC(=O)[C@H](CC(C)C)NC(=O)[C@H](CCC(=O)O)NC(=O)[C@H](CO)NC(=O)[C@@H](NC(=O)[C@H](Cc1ccccc1)NC(=O)[C@@H](NC(=O)CNC(=O)[C@H](CC(=O)O)NC(=O)[C@@H](N)CO)[C@@H](C)O)[C@@H](C)O)C(=O)N[C@H](C(=O)O)C(C)C [Peptide 115]
IC50 (human SCTR [3]; [7]): 1280 ± 703 nM | EC50 (human SCTR [1]; [5]): 22 nM

CC(C)C[C@H](NC(=O)CNC(=O)[C@H](CCC(N)=O)NC(=O)[C@H](CC(C)C)NC(=O)[C@H](CC(C)C)NC(=O)[C@H](CCCNC(=N)N)NC(=O)[C@H](CCC(N)=O)NC(=O)[C@H](CC(C)C)NC(=O)[C@H](CCCNC(=N)N)NC(=O)[C@H](C)NC(=O)CNC(=O)[C@H](CCC(=O)O)NC(=O)[C@H](CCCNC(=N)N)NC(=O)[C@H](CC(C)C)NC(=O)[C@H](CCCNC(=N)N)NC(=O)[C@H](CO)NC(=O)[C@H](CC(C)C)NC(=O)[C@H](CCC(=O)O)NC(=O)[C@@H](N)CO)C(=O)N[C@H](C(=O)O)C(C)C [Peptide 121]
IC50 (human SCTR [3]; [7]): 2730 ± 60 nM | EC50 (human SCTR [1]; [5]): > 10000 nM

HSDGTFTSELSRLREGARLQR [Peptide 102]
EC50 (human SCTR [1]; [5]): 586 nM

CC(C)C[C@H](NC(=O)CNC(=O)[C@H](CCC(N)=O)NC(=O)[C@H](CC(C)C)NC(=O)[C@H](CC(C)C)NC(=O)[C@H](CCCNC(=N)N)NC(=O)[C@H](CCC(N)=O)NC(=O)[C@H](CC(C)C)NC(=O)[C@H](CCCNC(=N)N)NC(=O)[C@H](C)NC(=O)CNC(=O)[C@H](CCC(=O)O)NC(=O)[C@H](CCCNC(=N)N)NC(=O)[C@H](CC(C)C)NC(=O)[C@H](CCCNC(=N)N)NC(=O)[C@H](CO)NC(=O)[C@H](CC(C)C)NC(=O)[C@H](CCC(=O)O)NC(=O)[C@H](CO)NC(=O)[C@@H](NC(=O)[C@H](C)NC(=O)[C@H](N)CCCNC(=N)N)[C@@H](C)O)C(=O)N[C@H](C(=O)O)C(C)C [Peptide 126]
IC50 (human SCTR [3]; read-out: IC50, inhibition of β-arr2-GFP translocation (Table 3)): 1760 ± 322 nM

[dR]FTSELSRLREAARLQRLLQGLV (ends and bridges not checked) [peptide 136]
cAMP production (GloSensor), agonist mode: intrinsic activity [% of secretin] [4]: 33.6%
